Assay results reported in article PMC4972829, “Olfactory Receptors Modulate Physiological Processes in Human Airway Smooth Muscle Cells” (Frontiers in Physiology, 2016).

Experiments:
OR2AG1 = target: T1, OR2AG1 (Homo sapiens, UniProt Q9H205); experiment: fura-2 calcium imaging in native human airway smooth muscle cells; cAMP assay (text prints EC50 […], figure legend […]); assay type: cell-based
T1 sequence (Q9H205 1-316): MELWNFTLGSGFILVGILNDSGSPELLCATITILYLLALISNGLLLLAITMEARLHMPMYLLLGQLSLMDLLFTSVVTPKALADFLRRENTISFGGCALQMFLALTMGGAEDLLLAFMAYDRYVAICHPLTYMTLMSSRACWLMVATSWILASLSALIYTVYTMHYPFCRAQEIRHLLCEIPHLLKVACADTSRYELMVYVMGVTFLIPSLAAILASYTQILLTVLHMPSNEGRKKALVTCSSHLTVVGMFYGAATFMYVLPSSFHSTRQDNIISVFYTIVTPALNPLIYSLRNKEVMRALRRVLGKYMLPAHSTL

OR1D2 = target: T2, OR1D2 (Homo sapiens, UniProt P34982); experiment: fura-2 calcium imaging in native human airway smooth muscle cells; blocked by OR1D2 antagonist undecanal; cAMP assay; assay type: cell-based
T2 sequence (P34982 1-312): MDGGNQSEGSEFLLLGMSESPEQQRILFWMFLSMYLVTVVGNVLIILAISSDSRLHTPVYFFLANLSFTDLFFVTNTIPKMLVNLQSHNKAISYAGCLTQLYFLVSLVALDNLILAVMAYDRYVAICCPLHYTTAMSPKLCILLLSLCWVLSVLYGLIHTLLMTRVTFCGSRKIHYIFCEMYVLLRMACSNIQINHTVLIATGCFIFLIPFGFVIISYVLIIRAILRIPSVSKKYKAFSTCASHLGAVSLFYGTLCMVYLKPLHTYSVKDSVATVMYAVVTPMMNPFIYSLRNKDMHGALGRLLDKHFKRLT

SMILES	EC50 (OR2AG1) [µM]	EC50 (OR1D2) [µM]
CCCCCOC(=O)CCC [amyl butyrate]	253	
CC(C)(C)c1ccc(CCC=O)cc1 [bourgeonal]		0.504
